Values of other authors in PubChem BioAssay AID1259409 (Chemical Carcinogenesis Research Information System (CCRIS), 2018).

Tested on: rodent chemically induced tumor inhibition, incidence and multiplicity
Assay: CCRIS tumor inhibitor studies
Conditions: Carcinogen: 7,12-DIMETHYLBENZ[A]ANTHRACENE, 57-97-6, Dose [Inhibitor]: 0, Route [Inhibitor]: DERMAL, Species: MOUSE, Strain/Sex: CD-1/MALE, Target Tissue: Type of Lesion: SKIN: TUMOR, Dose [Carcinogen]: 50 UG IN 0.2 ML ACETONE ONCE, Promoter: 12-O-TETRADECANOYLPHORBOL-13-ACETATE, 16561-29-8

Which results are given for CSC(=S)NCc1c[nH]c2ccccc12?
tumour outcome (control, treated, inhibition, significance) (0.5% IN 0.2 ML ACETONE APPLIED 1 HR PRIOR TO PROMOTER DOSE 2/WK FOR 12 WK (STUDY DURATION: 90 D)): 95%, 65%, 32%, not significant; tumour outcome (control, treated, inhibition, significance) (1% IN 0.2 ML ACETONE APPLIED 1 HR PRIOR TO PROMOTER DOSE 2/WK FOR 12 WK (STUDY DURATION: 90 D)): 95%, 50%, 50%, p<0.03; tumour outcome (control, treated, inhibition, significance) (1% IN 0.2 ML ACETONE APPLIED 1 HR PRIOR TO PROMOTER DOSE 2/WK FOR 12 WK BEGINNING 5 D PRIOR TO CARCINOGEN DOSE (STUDY): 95%, 55%, 42%, p<0.03
